From patent publication US20070128217A1 (priority 2003, published 2007)

Columns and labels:
[1] = tested on: recombinant human anti-SARS-CoV antibody 03-018; assay type: binding; parameters: Binding of antibody 03-018 to linear peptides of the N protein of SARS-CoV Urbani / Binding of antibody 03-018 to looped/cyclic peptides of the N protein of SARS-CoV Urbani: unit not given here
[2] = tested on: control sera (pooled serum of ten healthy LUMC hospital workers; commercial negative donor pooled serum from the Dutch bloodbank); assay type: binding, human; parameters: Binding of Control serum LUMC to linear peptides / Binding of Control serum Blood-bank to linear peptides / Binding of Control serum LUMC to looped peptides / Binding of Control Serum Blood-Bank to Looped peptides / Binding of Control serum LUMC to linear peptides of the protein M of SARS-CoV Urbani / Binding of Control serum Blood-bank to linear peptides of the protein M of SARS-CoV Urbani / Binding of Control serum LUMC to looped peptides of the protein M of SARS-CoV Urbani / Binding of Control Serum Blood-Bank to Looped peptides of the protein M of SARS-CoV Urbani: unit not given here
[3] = tested on: rabbit serum obtained by immunizing a rabbit with the SARS-CoV strain Frankfurt 1; assay type: binding; parameters: Binding of a rabbit serum to linear peptides / Binding of a rabbit serum to looped peptides / Rabbit serum linear peptides / Rabbit serum looped peptides / Binding of a rabbit serum to linear peptides of protein N of SARS-CoV Urbani (Rabbit serum linear peptides) / Binding of a rabbit serum to looped/cyclic peptides of protein N of SARS-CoV Urbani (Rabbit serum looped peptides): unit not given here
[4] = tested on: antibodies in sera from SARS patients (sera 1a, 1b, 2, 6, 37, 62, London, SARS-yellow, SARS-green); assay type: binding, human; parameters: Binding of serum 6 to linear peptides of protein X1 of SARS-CoV Urbani / Binding of serum 37 to linear peptides of protein X1 of SARS-CoV Urbani / Binding of serum 6 to looped/cyclic peptide (PEPSCAN-ELISA) / Binding of serum 37 to looped/cyclic peptide (PEPSCAN-ELISA) / Binding of serum 37 to looped/cyclic peptides of protein X1 of SARS-CoV Urbani / Binding of serum 6 to linear peptides of protein X2 / Binding of serum 37 to linear peptides of protein X2 / Binding of serum 37 to looped/cyclic peptides of protein X2 of SARS-CoV Urbani / Binding of serum 6 to linear peptides of protein M of SARS-CoV Urbani / Binding of serum 37 to linear peptides of protein M of SARS-CoV Urbani / Binding of serum 6 to looped/cyclic peptides of protein M of SARS-CoV Urbani / Binding of serum 37 to looped/cyclic peptides of protein M of SARS-CoV Urbani / Binding of serum 6 to linear peptides of protein X3 of SARS-CoV Urbani / Binding of serum 37 to linear peptides of protein X3 of SARS-CoV Urbani / Binding of serum 37 to looped/cyclic peptides of protein X3 of SARS-CoV Urbani / Binding of serum 6 to linear peptides of protein X4 of SARS-CoV Urbani / Binding of serum 37 to linear peptides of protein X4 of SARS-CoV Urbani / Binding of serum 37 to looped/cyclic peptides of protein X4 of SARS-CoV Urbani / Binding of serum 6 to linear peptides of protein X5 of SARS-CoV Urbani / Binding of serum 37 to linear peptides of protein X5 of SARS-CoV Urbani / Binding of serum 37 to looped/cyclic peptides of protein X5 of SARS-CoV Urbani / Binding of serum 6 to linear peptides of protein N of SARS-CoV Urbani / Binding of serum 37 to linear peptides of protein N of SARS-CoV Urbani / Binding of serum 6 to linear peptide (PEPSCAN-ELISA) / Binding of serum 1a to looped/cyclic peptides of protein N of SARS-CoV Urbani / Binding of serum 1b to looped/cyclic peptides of protein N of SARS-CoV Urbani / Binding of serum 2 to looped/cyclic peptides of protein N of SARS-CoV Urbani / Binding of serum 6 to looped/cyclic peptides of protein N of SARS-CoV Urbani / Binding of serum 37 to looped/cyclic peptides of protein N of SARS-CoV Urbani / Binding of serum 62 to looped/cyclic peptides of protein N of SARS-CoV Urbani / Binding of serum London to looped/cyclic peptides of protein N of SARS-CoV Urbani / Binding of serum SARS-green to looped/cyclic peptides of protein N of SARS-CoV Urbani: unit not given here

Sequence | Binding of antibody 03-018 to linear peptides of the N protein of SARS-CoV Urbani [1] | Binding of antibody 03-018 to looped/cyclic peptides of the N protein of SARS-CoV Urbani [1] | Binding of Control Serum Blood-Bank to Looped peptides [2] | Binding of Control serum Blood-bank to linear peptides [2] | Binding of Control serum LUMC to linear peptides [2] | Binding of Control serum LUMC to looped peptides [2] | Binding of a rabbit serum to linear peptides of protein N of SARS-CoV Urbani (Rabbit serum linear peptides) [3] | Binding of a rabbit serum to looped/cyclic peptides of protein N of SARS-CoV Urbani (Rabbit serum looped peptides) [3] | Binding of serum 1a to linear peptide (PEPSCAN-ELISA) [4] | Binding of serum 1a to looped/cyclic peptides of protein N of SARS-CoV Urbani [4] | Binding of serum 1b to linear peptide (PEPSCAN-ELISA) [4] | Binding of serum 1b to looped/cyclic peptides of protein N of SARS-CoV Urbani [4] | Binding of serum 2 to linear peptide (PEPSCAN-ELISA) [4] | Binding of serum 2 to looped/cyclic peptides of protein N of SARS-CoV Urbani [4] | Binding of serum 6 to looped/cyclic peptides of protein N of SARS-CoV Urbani [4] | Binding of serum 37 to looped/cyclic peptides of protein N of SARS-CoV Urbani [4] | Binding of serum 62 to looped/cyclic peptides of protein N of SARS-CoV Urbani [4] | Binding of serum London to looped/cyclic peptides of protein N of SARS-CoV Urbani [4] | Binding of serum SARS-green to looped/cyclic peptides of protein N of SARS-CoV Urbani [4] | Binding of serum SARS-yellow to looped/cyclic peptides of protein N of SARS-CoV Urbani [4] | other results
RGGSQASSRSSSRSR | 0.1 | 0.1 | 0.4 | 0.8 | 0.8 | 0.6 | 0.3 | 0.7 | 0.3 | 0.2 | 0.1 | 0.2 | 0.3 | 0.4 | 0.3 | 0.2 | 0.1 | 0.1 | 0.2 | 0.3 | Binding of serum 6 to linear peptide (PEPSCAN-ELISA) [4]: 0.4; Binding of serum 37 to linear peptide (PEPSCAN-ELISA) [4]: 0.7; Binding of serum 62 to linear peptide (PEPSCAN-ELISA) [4]: 0.7; Binding of serum London to linear peptide (PEPSCAN-ELISA) [4]: 0.5; Binding of serum SARS-green to linear peptide (PEPSCAN-ELISA) [4]: 0.3; Binding of serum SARS-yellow to linear peptide (PEPSCAN-ELISA) [4]: 0.7
RGNSRNSTPGSSRGN | 0.1 | 0.2 | 0.6 | 0.8 | 0.6 | 0.6 | 0.2 | 0.7 | 0.7 | 0.8 | 0.4 | 0.6 | 0.2 | 0.4 | 0.4 | 0.6 | 0.5 | 0.4 | 0.3 | 0.5 | Binding of serum 6 to linear peptide (PEPSCAN-ELISA) [4]: 0.2; Binding of serum 37 to linear peptide (PEPSCAN-ELISA) [4]: 0.7; Binding of serum 62 to linear peptide (PEPSCAN-ELISA) [4]: 0.7; Binding of serum London to linear peptide (PEPSCAN-ELISA) [4]: 0.4; Binding of serum SARS-green to linear peptide (PEPSCAN-ELISA) [4]: 0.2; Binding of serum SARS-yellow to linear peptide (PEPSCAN-ELISA) [4]: 0.8
RGPEQTQGNFGDQDL | 0.1 | 0.2 | 0.4 | 0.7 | 0.7 | 0.6 | 0.2 | 0.3 |  | 0.4 |  | 0.4 |  | 0.4 | 0.2 | 0.6 | 0.5 | 0.4 | 0.6 | 0.6 | Recognition of the peptide by sera of SARS-CoV infected individuals, and form (linear, looped/cyclic) in which it is recognized [4]: recognized in linear form
RGQGVPINTNSGPDD | 0.1 | 0.2 | 0.4 | 0.5 | 0.5 | 0.4 | 0.1 | 0.0 |  | 0.2 |  | 0.1 |  | 0.2 | 0.1 | 0.3 | 0.2 | 0.2 | 0.2 | 0.0 | Binding of serum 1a to linear peptides of protein N of SARS-CoV Urbani [4]: 0.2; Binding of serum 1b to linear peptides of protein N of SARS-CoV Urbani [4]: 0.1; Binding of serum 2 to linear peptides of protein N of SARS-CoV Urbani [4]: 0.1; Binding of serum 6 to linear peptides of protein N of SARS-CoV Urbani [4]: 0.1; Binding of serum 37 to linear peptides of protein N of SARS-CoV Urbani [4]: 0.3; Binding of serum 62 to linear peptides of protein N of SARS-CoV Urbani [4]: 0.4; Binding of serum London to linear peptides of protein N of SARS-CoV Urbani [4]: 0.4; Binding of serum SARS-green to linear peptides of protein N of SARS-CoV Urbani [4]: 0.4; Binding of serum SARS-yellow to linear peptides of protein N of SARS-CoV Urbani [4]: 0.6
